Reference: PMC9854762, “Antibiofilm and Anti-Quorum-Sensing Activities of Novel Pyrazole and Pyrazolo[1,5-a]pyrimidine Derivatives as Carbonic Anhydrase I and II Inhibitors: Design, Synthesis, Radiosterilization, and Molecular Docking Studies” (Antibiotics, 2023)
Values after ≈ are worked out from the molar mass of the structure shown. Read-outs that look alike come from different tables or passages of the source.

Legend:
[1] = tested on: S. pyogenes DH-3467; test: Broth microdilution MIC/MBC; format: cell-based, Streptococcus pyogenes; settings: for MIC: Streptococcus pyogenes, DH3467, 24 h, read-out: MIC (Mean ± SEM); for MBC/MIC: value in brackets
Description: (§1) The broth microdilution method was taken as a basis to detect the MICs of pyrazole compounds against tested clinical isolates, according to the Clinical Laboratory and Standards Institute guidelines. The broth cultures were used to prepare the bacterial inoculums, and the suspensions were adjusted to the standard 0.5 McFarland turbidity. Stock solutions of the synthesized pyrazoles were prepared in pure DMSO and further serially diluted with TS broth in the concentration range from 128 µg/mL to 0.0625 µg/mL. A well containing noninoculated TS broth, free of any antimicrobial agents, was also included to ensure the medium sterility, while Erythromycin and Amikacin served as positive controls. Bacterial growth was determined by adding 20 µL of 0.5% TTC (2,3,5-triphenyltetrazolium chloride) aqueous solution. […] All experiments were repeated three times. The bactericidal effect from each concentration of the pyrazole and pyrazolo[1,5-a]pyrimidine derivatives showing growth inhibition was further studied. For this study, a loopful of 5 µL was taken from each no-visible growth tube and streaked onto plates of TS agar.

[2] = tested on: A. baumannii DH-243; test: Broth microdilution MIC/MBC; format: cell-based, Acinetobacter baumannii; settings: for MIC: Acinetobacter baumannii, DH243, 24 h, read-out: MIC (Mean ± SEM); for MBC/MIC: value in brackets
Description: as §1

[3] = tested on: S. aureus DH-432; test: Broth microdilution MIC/MBC; format: cell-based, Staphylococcus aureus; settings: for MIC: Staphylococcus aureus, DH432, 24 h, read-out: MIC (Mean ± SEM); for MBC/MIC: value in brackets
Description: as §1

[4] = tested on: S. aureus DH-432; test: Agar well-diffusion assay; format: cell-based; settings: Staphylococcus aureus, DH432; S. aureus DH-432; 50 µL of 10 mM per well; read-out: Diameter of Inhibition Zones (AZOI)
Description: (§2) The synthesized compounds were initially screened for their in vitro antibacterial activity against the different Gram-positive and Gram-negative bacteria, tested using the agar well-diffusion assay. The turbidity of the bacterial suspensions was established to the 0.5 McFarland turbidity standard. The activity was performed on TS agar plates. The bacteria were spread on the surface of the agar plates, and 10 mm wells were screwed into the agar plates. The assay was performed under aseptic conditions. An aliquot of 50 µL of each tested compound (10 mM) was added to the wells, and the plates were incubated overnight at 37 °C. Both Erythromycin and Amikacin antibiotic disks were used as positive control, while DMSO solvent was used as a negative control in this study. The diameters of inhibition zones were measured and recorded in mm. A comparative study of the synthesized compounds was determined. The experiment was performed in triplicates.

[5] = tested on: S. pyogenes DH-3467; test: Agar well-diffusion assay; format: cell-based; settings: Streptococcus pyogenes, DH3467; S. pyogenes DH-3467; 50 µL of 10 mM per well; read-out: Diameter of Inhibition Zones (AZOI)
Description: as §2

[6] = tested on: E. faecalis DH-5478; test: Agar well-diffusion assay; format: cell-based; settings: Enterococcus faecalis, DH5478; E. faecalis DH-5478; 50 µL of 10 mM per well; read-out: Diameter of Inhibition Zones (AZOI)
Description: as §2

[7] = tested on: E. coli DH-5987; test: Agar well-diffusion assay; format: cell-based; settings: Escherichia coli, DH5987, 50 µL of 10 mM per well, read-out: Diameter of Inhibition Zones (AZOI)
Description: as §2

[8] = tested on: A. baumannii DH-243; test: Agar well-diffusion assay; format: cell-based; settings: Acinetobacter baumannii
Description: as §2

[9] = tested on: P. aeruginosa DH-5698; test: Agar well-diffusion assay; format: cell-based, Pseudomonus aeruginosa; settings: Pseudomonas aeruginosa
Description: as §2

[10] = tested on: E. coli DH-5987; test: Broth microdilution MIC/MBC; format: cell-based, Escherichia coli; settings: for MBC/MIC: value in brackets; for MIC: read-out: MIC (Mean ± SEM)
Description: as §1

[11] = tested on: P. aeruginosa DH-5698; test: Broth microdilution MIC/MBC; format: cell-based, Pseudomonus aeruginosa; settings: for MIC: Pseudomonas aeruginosa, DH5698, 24 h, read-out: MIC (Mean ± SEM); for MBC/MIC: value in brackets
Description: as §1

[12] = tested on: E. faecalis DH-5478; test: Broth microdilution MIC/MBC; format: cell-based, Enterococcus faecalis; settings: for MIC: Enterococcus faecalis, DH5478, 24 h, read-out: MIC (Mean ± SEM); for MBC/MIC: value in brackets
Description: as §1

[13] = DH243, A. baumannii DH-243, 50 µL of 10 mM per well, read-out: Diameter of Inhibition Zones (AZOI)
[14] = DH5698, P. aeruginosa DH-5698, 50 µL of 10 mM per well, read-out: Diameter of Inhibition Zones (AZOI)
[15] = Escherichia coli, DH5987, E. coli DH-5987, 24 h

Compound | MIC [1] | MBC/MIC [1] | MIC [2] | MBC/MIC [2] | melting point | MIC [3] | MBC/MIC [3] | zone of inhibition at 10000 µM [4] | zone of inhibition at 10000 µM [5] | zone of inhibition at 10000 µM [6] | zone of inhibition at 10000 µM [7] | zone of inhibition at 10000 µM [8, 13] | zone of inhibition at 10000 µM [9, 14] | MBC/MIC ([10]; E. coli DH-5987) | MIC [10, 15] | MIC [11] | MBC/MIC [11] | MIC [12] | MBC/MIC [12] | also measured
CCOC(=O)c1ccc(N=Nc2c(N)nn3c2N=C(C)CC3=O)cc1 [Compound 7, ethyl 4-((2-amino-5-methyl-7-oxo-6,7-dihydropyrazolo[1,5-a]pyrimidin-3-yl)diazenyl)benzoate] | 1.5 ± 0.2 µg/mL (≈ 4.41 µM) | 1 | 2 ± 0.3 µg/mL (≈ 5.88 µM) | 1 | 296 to 298 °C | 1 ± 0.3 µg/mL (≈ 2.94 µM) | 1 | 25.3 mm | 22.8 mm | 23 mm | 25.8 mm | 24.5 mm | 24 mm | 0.5 | 1.5 ± 0.2 µg/mL (≈ 4.41 µM) | 2 ± 0.3 µg/mL (≈ 5.88 µM) | 0.5 | 2 ± 0.4 µg/mL (≈ 5.88 µM) | 1 | 
NCC[C@H](O)C(=O)N[C@@H]1C[C@H](N)[C@@H](O[C@H]2O[C@H](CN)[C@@H](O)[C@H](O)[C@H]2O)[C@H](O)[C@H]1O[C@H]1O[C@H](CO)[C@@H](O)[C@H](N)[C@H]1O [AK, Amikacin, reference compound] |  |  | 128 ± 0.2 µg/mL (≈ 219 µM) | 4 |  |  |  |  |  |  | 11 mm |  |  | 4 | 32 µg/mL (≈ 54.6 µM) | 128 ± 0.1 µg/mL (≈ 219 µM) | 4 |  |  | zone of inhibition at 10000 µM ([8]; DH243, read-out: Diameter of Inhibition Zones (AZOI)): 13 mm; zone of inhibition at 10000 µM ([9]; DH5698, read-out: Diameter of Inhibition Zones (AZOI)): 14 mm; MIC (Mean ± SEM) ([10]; E. coli DH-5987, 24 h): 32 ± 0.2 µg/mL (≈ 54.6 µM); MBC ([10]; Escherichia coli, DH5987, E. coli): 128 µg/mL (≈ 219 µM)
CCOC(=O)c1ccc(N=Nc2c(N)nn3c(-c4ccc(Cl)cc4)cc(-c4ccccc4)nc23)cc1 [Compound 8c, Ethyl-4-((2-amino-7-(4-chlorophenyl)-5-phenylpyrazolo[1,5-a]pyrimidin-3-yl)diazenyl)benzoate] | 4 ± 0.2 µg/mL (≈ 8.05 µM) | 2 | 8 ± 0.4 µg/mL (≈ 16.1 µM) | 2 |  | 4 ± 0.1 µg/mL (≈ 8.05 µM) | 1 | 16.1 mm | 15.4 mm | 15.1 mm | 17.8 mm | 15.2 mm | 16.3 mm | 2 | 4 ± 0.1 µg/mL (≈ 8.05 µM) | 8 ± 0.3 µg/mL (≈ 16.1 µM) | 2 | 8 ± 0.2 µg/mL (≈ 16.1 µM) | 2 | 
CCOC(=O)c1ccc(N=Nc2c(N)nn3c(N)c(C#N)c(-c4ccc(Cl)cc4)nc23)cc1 [Compound 9c, Ethyl-4-((2,7-diamino-5-(4-chlorophenyl)-6-cyanopyrazolo[1,5-a]pyrimidin-3-yl)diazenyl)benzoate] | 2 ± 0.1 µg/mL (≈ 4.34 µM) | 1 | 4 ± 0.4 µg/mL (≈ 8.68 µM) | 1 | 288 to 290 °C | 2 ± 0.3 µg/mL (≈ 4.34 µM) | 1 | 24.2 mm | 23.5 mm | 23.1 mm | 25.2 mm | 23.9 mm | 24.1 mm | 1 | 1 ± 0.3 µg/mL (≈ 2.17 µM) | 2 ± 0.2 µg/mL (≈ 4.34 µM) | 1 | 4 ± 0.2 µg/mL (≈ 8.68 µM) | 1 | 
CCOC(=O)c1ccc(N=Nc2c(N)nn3c(N)c(C#N)c(-c4ccc(OC)cc4)nc23)cc1 [Compound 9b, Ethyl-4-((2,7-diamino-6-cyano-5-(4-methoxyphenyl)pyrazolo[1,5-a]pyrimidin-3-yl)diazenyl)benzoate] | 2 ± 0.3 µg/mL (≈ 4.38 µM) | 0.5 | 2 ± 0.1 µg/mL (≈ 4.38 µM) | 1 | 210 to 212 °C | 1.5 ± 0.2 µg/mL (≈ 3.29 µM) | 1 | 25 mm | 25.7 mm | 24.3 mm | 26.5 mm | 23 mm | 25.4 mm | 0.5 | 1 ± 0.3 µg/mL (≈ 2.19 µM) | 1.5 ± 0.2 µg/mL (≈ 3.29 µM) | 0.5 | 2 ± 0.2 µg/mL (≈ 4.38 µM) | 1 | 
CCOC(=O)c1ccc(N=Nc2c(N=Cc3ccc(OC)cc3)n[nH]c2N)cc1 [Compound 5b, Ethyl-4-((5-amino-3-((4-methoxybenzylidene)amino)-1H-pyrazol-4-yl)diazenyl)benzoate] | 1 ± 0.2 µg/mL (≈ 2.55 µM) | 1 | 2 ± 0.1 µg/mL (≈ 5.1 µM) | 0.5 | 210 to 212 °C | 1 ± 0.3 µg/mL (≈ 2.55 µM) | 1 | 26.2 mm | 24.1 mm | 25.4 mm | 25.7 mm | 23.4 mm | 24.7 mm | 0.5 | 1 ± 0.2 µg/mL (≈ 2.55 µM) | 2 ± 0.3 µg/mL (≈ 5.1 µM) | 1 | 1.5 ± 0.3 µg/mL (≈ 3.82 µM) | 1 | 
CCOC(=O)c1ccc(N=Nc2c(N)nn(-c3ccccc3)c2N)cc1 [Compound 3b, Ethyl 4-((3,5-diamino-1-phenyl-1H-pyrazol-4-yl)diazenyl)benzoate] | 0.75 ± 0.4 µg/mL (≈ 2.14 µM) | 1 | 1 ± 0.3 µg/mL (≈ 2.85 µM) | 0.5 | 144 to 146 °C | 0.5 ± 0.1 µg/mL (≈ 1.43 µM) | 1 | 25.2 mm | 24.7 mm | 24.4 mm | 26.9 mm | 23.1 mm | 25.1 mm | 1 | 0.5 ± 0.2 µg/mL (≈ 1.43 µM) | 1 ± 0.2 µg/mL (≈ 2.85 µM) | 0.5 | 0.75 ± 0.2 µg/mL (≈ 2.14 µM) | 0.5 | 
CCOC(=O)c1ccc(N=Nc2c(N)nn3c(-c4cccs4)cc(-c4ccccc4)nc23)cc1 [Compound 8a, Ethyl-4-((2-amino-5-phenyl-7-(thiophen-2-yl)pyrazolo[1,5-a]pyrimidin-3-yl)diazenyl)benzoate] | 4 ± 0.4 µg/mL (≈ 8.54 µM) | 1 | 4 ± 0.2 µg/mL (≈ 8.54 µM) | 2 | 200 to 202 °C | 2 ± 0.2 µg/mL (≈ 4.27 µM) | 1 | 22 mm | 21.4 mm | 20.6 mm | 23.4 mm | 19.7 mm | 21.6 mm | 1 | 2 ± 0.2 µg/mL (≈ 4.27 µM) | 2 ± 0.3 µg/mL (≈ 4.27 µM) | 1 | 4 ± 0.3 µg/mL (≈ 8.54 µM) | 1 | 
CCOC(=O)c1ccc(N=Nc2c(N)nn3c(-c4ccco4)cc(-c4ccccc4)nc23)cc1 [Compound 8b, Ethyl 4-((2-amino-7-(furan-2-yl)-5-phenylpyrazolo[1,5-a]pyrimidin-3-yl)diazenyl)benzoate] | 8 ± 0.2 µg/mL (≈ 17.7 µM) | 1 | 8 ± 0.2 µg/mL (≈ 17.7 µM) | 2 | 212 to 214 °C | 4 ± 0.3 µg/mL (≈ 8.84 µM) | 2 | 19.5 mm | 18.7 mm | 17.3 mm | 20.1 mm | 16.5 mm | 18.4 mm | 1 | 2 ± 0.3 µg/mL (≈ 4.42 µM) | 4 ± 0.1 µg/mL (≈ 8.84 µM) | 2 | 4 ± 0.1 µg/mL (≈ 8.84 µM) | 2 | 
